The values that follow come from patent US9969753B2, “BCR-ABL diploid inhibitor, synthesizing method therefor, and uses thereof” (CHENGDU UNIVERSITY, priority 2014, dated 2018).

Molecules are shown by their SMILES. pIC50: −log10 of the molar value.

Data set [1] concerns KBM5 (human wild type Bcr-Abl) cells. The data set can be described thus: KBM5 tumor growth inhibition test in vitro (ATP method). The class given is cell-based. To be noted: 72 hours incubation, read-out: IC50, cytotoxicity to KBM5 cells. How it is done: (§1) Using ATP method to determine the cell toxicity of compound BGC of the present invention. Adjust the KBM5 cells to a suitable cell density. 140 ul cell suspensions inoculated each hole on 96-well plate. The vaccination density of each species cell is: 2000-6000; then the cell culture plate is placed in the incubator for 24 hours so that it is attached on the wall holes. Using 3 times dilution method to prepare the solution of BGC compound with different concentrations, and add them into the correspond holes on 96-well plate with vaccination in advance, 10 μL of each hole, and its final concentrations are as follows: 100 μM, 33.3 μM, 11.1 μM, 3.70 μM, 1.23 μM, 0.41 μM, 0.14 μM, 0.046 μM, 0.015 μM. Duplicate 3 times of each concentration. After 72 hours incubation in 37° C. incubator, detect the cell proliferation of each hole with ATP method, and calculate the drug concentration to median lethal concentration IC50 of KBM5 cells.
as §1, with “BP” for “BGC”, “KBM5 and KBM5R” for “KBM5”, “method” for “method,”
Using ATP method to determine the cell toxicity of compound BDB of the present invention. Adjust the KBM5 and KBM5R cells to a suitable cell density. 140 ul cell suspensions inoculated each hole on 96-well plate. […]

The target of a further data set is c-Abl tyrosine kinase (Homo sapiens, UniProt P00519). The data set can be described thus: Mobility Shift Assay, inhibition of kinase Abl in vitro. The class given is biochemical. To be noted: 10 concentrations 100 μM to 0.005 μM. How it is done:
Using the method of mobility Shift Assay, detect activity of the compound BGC with kinase Abl in vitro. The concentration of BGC was diluted from 100 μM with 100% DMSO to 0.005 μM using 3 times dilution method, 10 concentrations in total for detection (2 duplicate) with staurosporine as standard control, set solvent control (10% DMSO) and negative control (EDTA).
Detect activity of different concentrations of the compound BGC on 384 holes reaction plate by enzyme-linked immune response on the inhibition of the kinase Abl, read the conversion rate data on Caliper, and convert the conversion rate to inhibition rate. Percent inhibition=(max−conversion)/(max−min)*100
Wherein, max is the conversion rate of DMSO control; min refers to the conversion rate of enzyme-free control.
According to inhibition rate of the concentrations, calculate the half inhibitory concentration IC50 of the compound BGC to tyrosine kinase Abl.
Using the method of Mobility Shift Assay, detect activity of the compound BP with kinase Abl in vitro. The concentration of BP was diluted from 100 μM with 100% DMSO to 0.005 μM using 3 times dilution method, 10 concentrations in total for detection (2 duplicate) with staurosporine as standard control, set solvent control (10% DMSO) and negative control (EDTA).
Detect activity of different concentrations of the compound BP on 384 holes reaction plate by enzyme-linked immune response on the inhibition of the kinase Abl, read the conversion rate data on Caliper, and convert the conversion rate to inhibition rate. Percent inhibition=(max−conversion)/(max−min)*100
Wherein, max is the conversion rate of DMSO control, min refers to the conversion rate of enzyme-free control.
According to inhibition rate of the concentrations, calculate the half inhibitory concentration IC50 of the compound BP to tyrosine kinase c-Abl. […]
Detect activity of different concentrations of the compound BDB on 384 holes reaction plate by enzyme-linked immune response on the inhibition of the kinase Abl, read the conversion rate data on Caliper, and convert the conversion rate to inhibition rate. […]

The test system of data set [2] is KBM5 (Bcr-Abl positive) cell subcutaneous implanted tumor. The data set is described as follows: Leukemia subcutaneous xenograft growth inhibition test, KBM5. Type of data set: in vivo, C57BL/6(Es-1^c) nude mice. To be noted: dosed once a day for two weeks, tumor volume; for inhibitory effect compared with Imatinib in KBM5 subcutaneous tumor model: positive control 160 mg/Kg Imatinib. From the text: According to the test results of the growth inhibition in vitro, assess inhibitory effect of the BGC to transplant subcutaneously in C57BL/6(Es-1^c) nude mice with human leukemia KBM5 cells growth.
Study tumor growth if it can be inhibited, slowed or cured. Twice a week or every other day, use a vernier caliper to measure the tumor size. The calculation formula of tumor volume: V=0.5a×b^2, a, b respectively represent the long and short radius of the tumor.
(§2) Data analysis: T test is used for the comparison between the two groups; one-way ANOVA is used between three or more groups. If there is a significant difference of f value, multiple comparisons should be used additional to ANOVA analysis. Two-way ANOVA is used to analyze potential synergies of combined drug group. All data analysis use SPSS 17.0; p<0.05 is considered with a significant difference.
According to the test results of the growth inhibition in vitro, select the minimum IC50 of the compound BP of the present invention, assess inhibitory effect of the BP to transplant subcutaneously in C57BL/6(Es-1^c) nude mice with human leukemia KBM5 and KBM5R cells growth.
According to the test results of the growth inhibition in vitro, select the minimum IC50 of the compound BDB of the present invention, assess inhibitory effect of the BDB to transplant subcutaneously in C57BL/6(Es-1^c) nude mice with human leukemia KBM5 and KBM5R cells growth.

A short description of data set [3]: Preliminary pharmacokinetic study, single intravenous dosage. The class given is in vivo, female C57BL/6(Es-1^c) nude mice. To be noted: female, C57BL/6(Es-1^c) nude, mouse, whole blood; intravenous 1 mg/kg, mice, non-compartmental model.
Procedure: Experiment methods and procedures are as follows: female C57BL/6(Es-1^c) nude mice, weight 18-25 g, age 6-8 weeks, other, 3 female C57BL/6(Es-1^c) nude mice for blank samples, prepare for the standard curve for analysis. Intravenous dosage 1 mg/kg, delivery volume 5 mL/kg. Intravenous injection drug solution: DMSO:Solutol HS15:Saline=5:5:90, v/v/v. […] Female C57BL/6(Es-1^c) nude mice after intravenous injection dosage collect about 20 μL bloods from the mouse tail vein at 0.25 h, 2 h, 8 h and 24 h, use K2EDTA anticoagulant. Use steamed water to dilute the blood sample in accordance with volume in 3 times and store the diluted blood sample at −70° C. for analysis.
Data analysis: use WinNonlin (version 6.2) software, based on non-compartmental model to calculate the pharmacokinetic parameters.
Experiment methods and procedures are as follows: female C57BL/6(Es-1^c) nude mice, weight 18-25 g, age 6-8 weeks, other, 3 female C57BL/6(Es-1^c) nude mice for blank samples, prepare for the standard curve for analysis. Intravenous dosage 1 mg/kg, delivery volume 5 mL/kg. Intravenous injection drug solution: DMSO:Solutol HS15:Saline=5:5:90, v/v/v. […] Female C57BL/6(Es-1^c) nude mice after intravenous injection dosage collect about 20 μL blood from the mouse tail vein at 0.25h, 2h, 8h and 24 h, use K2EDTA anticoagulant. Use steamed water to dilute the blood sample in accordance with volume in 3 times and store the diluted blood sample at −70° C. for analysis.
Experiment methods and procedures are as follows: female C57BL/6(Es-1^c) nude mice, weight 18-25 g, age 6-8 weeks, other, 3 female C57BL/6(Es-1^c) nude mice for blank samples, prepare for the standard curve for analysis. Intravenous dosage 1 mg/kg, delivery volume 5 mL/kg.
For data set [4], the system named is KBM5R (Bcr-Abl T315I mutation) cell subcutaneous implanted tumor. The data set is described as follows: Leukemia subcutaneous xenograft growth inhibition test, KBM5R. The class given is in vivo, C57BL/6(Es-1^c) nude mice. To be noted: dosed once a day for two weeks, tumor volume; Imatinib 160 mg/Kg.
Excerpt: Twice a week or every other day, use a vernier caliper to measure the tumor size. The calculation formula of tumor volume: V=0.5a×b^2, a, b respectively represent the long and short radius of the tumor.
as §2

For data set [5], the system named is KBM5R (Bcr-Abl T315I mutation) cells. The data set can be described thus: KBM5R tumor growth inhibition test in vitro (ATP method). The class given is cell-based. To be noted: Homo sapiens, 72 hours incubation, read-out: IC50, cytotoxicity to KBM5R cells. How it is done:
as §1, with “BP” for “BGC”, “KBM5 and KBM5R” for “KBM5”, “method” for “method,”
Using ATP method to determine the cell toxicity of compound BDB of the present invention. Adjust the KBM5 and KBM5R cells to a suitable cell density. 140 ul cell suspensions inoculated each hole on 96-well plate. The vaccination density of each species cell is: 2000-6000; then the cell culture plate is placed in the incubator for 24 hours so that it is attached on the wall holes. […]

Sequence of c-Abl tyrosine kinase (P00519 whole entry): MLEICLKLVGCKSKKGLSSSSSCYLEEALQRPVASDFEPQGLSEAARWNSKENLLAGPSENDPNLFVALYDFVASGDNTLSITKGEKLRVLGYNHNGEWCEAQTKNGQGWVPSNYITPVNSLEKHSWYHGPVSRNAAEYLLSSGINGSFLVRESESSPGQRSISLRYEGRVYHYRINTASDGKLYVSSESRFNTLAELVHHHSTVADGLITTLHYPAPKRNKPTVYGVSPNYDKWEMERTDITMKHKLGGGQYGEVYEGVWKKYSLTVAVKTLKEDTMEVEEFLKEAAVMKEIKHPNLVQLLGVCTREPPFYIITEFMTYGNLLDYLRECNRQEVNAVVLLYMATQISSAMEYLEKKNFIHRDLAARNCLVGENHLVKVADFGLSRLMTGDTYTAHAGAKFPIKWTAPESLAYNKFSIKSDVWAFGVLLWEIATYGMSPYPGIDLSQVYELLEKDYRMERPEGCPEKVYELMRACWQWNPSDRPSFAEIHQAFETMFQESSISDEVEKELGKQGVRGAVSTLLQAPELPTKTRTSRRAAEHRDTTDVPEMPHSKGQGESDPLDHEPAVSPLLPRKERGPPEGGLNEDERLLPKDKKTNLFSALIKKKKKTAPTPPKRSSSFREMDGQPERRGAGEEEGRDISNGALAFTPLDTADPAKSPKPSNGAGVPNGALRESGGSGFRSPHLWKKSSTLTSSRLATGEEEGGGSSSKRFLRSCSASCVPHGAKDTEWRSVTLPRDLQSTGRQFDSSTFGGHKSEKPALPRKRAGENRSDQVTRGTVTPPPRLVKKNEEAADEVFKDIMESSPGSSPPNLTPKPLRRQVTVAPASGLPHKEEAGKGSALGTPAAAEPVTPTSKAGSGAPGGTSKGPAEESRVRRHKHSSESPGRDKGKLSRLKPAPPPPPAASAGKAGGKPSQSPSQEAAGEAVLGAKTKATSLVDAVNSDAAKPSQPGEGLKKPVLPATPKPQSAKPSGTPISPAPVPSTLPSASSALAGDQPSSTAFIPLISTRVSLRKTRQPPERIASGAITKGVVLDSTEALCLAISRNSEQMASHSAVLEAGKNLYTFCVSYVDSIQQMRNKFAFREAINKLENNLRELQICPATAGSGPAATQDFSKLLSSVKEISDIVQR

For orientation: pIC50 means −log10 of the IC50, conventionally taken in molar units. As a reminder, the half-life is how long it takes for the measured level to halve. The low end stands for rapid decline, the high end for slow decline. `Cc1ccc(NC(=O)c2ccc(CN3CCN(CCC(=O)NCCCOCCOCCOCCCNC(=O)CCCC(=O)NCCCOCCOCCOCCCNC(=O)CCN4CCN(Cc5ccc(C(=O)Nc6ccc(C)c(Nc7nccc(-c8cccnc8)n7)c6)cc5)CC4)CC3)cc2)cc1Nc1nccc(-c2cccnc2)n1` [compound BGC]: the negative-log IC50 (pIC50) in data set [1] was 5.05. Further, at c-Abl tyrosine kinase, the pIC50 is 7.70. Besides, in data set [2], the “anti-tumor efficacy in KBM5 subcutaneous tumor model” value is “has anti-tumor efficacy” and the “inhibitory effect compared with Imatinib in KBM5 subcutaneous tumor model” value (from here on “inhibitory effect compared with Imatinib”) is given as “same inhibitory effect with a dosage of 350 mg/kg as Imatinib of 160 mg/kg”. Moreover, the half-life in data set [3] is 3.5 h.
For the compound `Cc1ccc(C(=O)Nc2ccc(CN3CCN(CCC(=O)NCCCOCCOCCOCCCNC(=O)CCCC(=O)NCCCOCCOCCOCCCNC(=O)CCN4CCN(Cc5ccc(NC(=O)c6ccc(C)c(C#Cc7cnc8cccnn78)c6)cc5C(F)(F)F)CC4)CC3)c(C(F)(F)F)c2)cc1C#Cc1cnc2cccnn12` [compound BP], the pIC50 was 5.70 in data set [1], 8.00 on c-Abl tyrosine kinase and 5.30 in data set [5]. Besides, in data set [2], the “anti-tumor efficacy in KBM5 subcutaneous tumor model” value is listed as “has anti-tumor efficacy”. Also, the “inhibitory effect compared with Imatinib” value in data set [2] is listed as “same inhibitory effect with a dosage of 80 mg/kg as Imatinib of 160 mg/kg”. Also, the “anti-tumor efficacy in KBM5R subcutaneous tumor model” value in data set [4] is reported as “has anti-tumor efficacy”. In addition, the half-life in data set [3] was 3.5 h.
For the compound `CO[C@H](C(=O)N1Cc2[nH]nc(NC(=O)c3ccc(CN4CCN(CCC(=O)NCCCOCCOCCOCCCNC(=O)CCCC(=O)NCCCOCCOCCOCCCNC(=O)CCN5CCN(Cc6ccc(C(=O)Nc7n[nH]c8c7CN(C(=O)[C@H](OC)c7ccccc7)C8)cc6)CC5)CC4)cc3)c2C1)c1ccccc1` [compound BDB], the results for the pIC50 (in data set [1]; on c-Abl tyrosine kinase; in data set [5]) were 5.15, 7.30 and 5.05, respectively. Also, the “anti-tumor efficacy in KBM5 subcutaneous tumor model” value in data set [2] is “has anti-tumor efficacy”. Also, the “inhibitory effect compared with Imatinib” value in data set [2] is on record as “same inhibitory effect with a dosage of 80 mg/kg as Imatinib of 160 mg/kg”. Moreover, in data set [4], the “anti-tumor efficacy in KBM5R subcutaneous tumor model” value was “has anti-tumor efficacy”. Further, the half-life in data set [3] is 3.8 h.
